Reference: EP0051773A1, “Penicillins, their salts, process for their preparation and pharmaceutical compositions containing them” (Dr. Karl Thomae GmbH, priority 1980, dated 1982)
Values after ≈ are worked out from the molar mass of the structure shown.

How the values were obtained:
[1] = tested on: Klebsiella pneumoniae ATCC 10 031; experiment: serial dilution test in microtiter system (bacteriostasis, MIC); assay type: cell-based; details: ATCC10, liquid medium, 18 to 20 h at 37°C, read-out: MHK-Werte Kl. pneum. ATCC 10 031
Description: (§1) Für die Untersuchungen wurde die Methode des Reihenverdünnungstestes im Mikrotitersystem angewandt. Die Prüfung der Substanzen auf Bakteriostase erfolgte in flüssigem Medium. Es wurde die Bakteriostasewirkung bei folgenden Konzentrationen untersucht.
(§2) Es wurde ein Nährboden folgender Zusammensetzung benutzt: 10 g Pepton, 8 g Fleischextrakt-Oxoid, 3 g Natriumschlorid, 2 g sek. Natriumphosphat werden mit dest. Wasser auf 1000 ml aufgefüllt (pH 7,2-7,4). Lediglich bei der Testung gegen Streptokokken wurde 1% Glucose hinzugefügt. Das Alter der Primärkulturen betrug etwa 20 Stunden. Die Einstellung der Keimsuspension erfolgte am Photometer (nach "Eppendorf") (Reagenzglas-Durchmesser 14 mm, Filter 546 nm) anhand der Trübung einer Bariumsulfat-Vergleichssuspension, die durch eine Bariumsulfat-Aufschwemmung erzeugt wurde, welche durch die Zugabe von 3,0 ml 1%ige Bariumchloridlösung in 97 ml 1%ige Schwefelsäure entstand. Nach der Einstellung wurden Streptococcus Aronson im Verhältnis 1:15 und die übrigen Testkeime im Verhältnis 1:1500 mit einer Kochsalzlösung weiter verdünnt.
(§3) 16 mg der jeweiligen Substanz wurden in 10 ml-Meßkolben eingewogen und mit dem Lösungsmittel bis zur Marke aufgefüllt. Die weitere Verdünnungsreihe wurde mit destilliertem Wasser oder dem jeweiligen Lösungsmittel hergestellt.
(§4) Die Vertiefungen der Mikrotiterplatten wurden mit 0,2 ml Nährmedium, 0,01 ml der entsprechenden Substanzverdünnung und mit einem Tropfen Keimsuspension (0,01 ml) beschickt und 18 bis 20 Stunden bei 37°C bebrütet. Eine Lösungsmittelkontrolle wurde stets mitgeführt.
(§5) Die Ablesung wurde makroskopisch vorgenommen, wobei die jeweilige Grenkonzentration (= niedrigste noch bakteriostatisch wirksame Konzentration) ermittelt wurde.
(§6) Als Testorganismen wurden benützt: - Staphylococcus aureus SG 511, Escherichia coli ATCC 11 775, Pseudomonas aeruginosa Hamburgensis und Walter, Serratia marcescens ATCC 13 880, Klebsiella pneumoniae ATCC 10 031 und BC 6, Proteus mirabilis Hamburgensis, Proteus rettgeri BC 7 und Enterobacter cloacae ATCC 13 047.
(§7) In der folgenden Tabelle 2 sind die ermittelten minimalen Hemmkonzentrationen (MIC) für typische Vertreter der erfindungsgemäßen Verbindungen aufgeführt, wobei sich die Ziffern auf die Penicilline der Tabelle 1 Seite 18 beziehen.

[2] = tested on: Enterobacter cloacae ATCC 13 047; experiment: as above; assay type: cell-based; details: ATCC13, liquid medium, 18 to 20 h at 37°C, read-out: MHK-Werte Eb. cloacae 13 047
Description: as §1, §2, §3, §4, §5, §6, §7

Proteus rettgeri BC 7 = experiment: as above; assay type: cell-based; details: Providencia rettgeri, BC7; liquid medium, 18 to 20 h at 37°C; read-out: MHK-Werte Prot. rettg. BC 7
Description: as §1, §2, §3, §4, §5, §6, §7

[3] = tested on: Klebsiella pneumoniae BC 6; experiment: as above; assay type: cell-based; details: BC6, liquid medium, 18 to 20 h at 37°C, read-out: MHK-Werte Kl. pneum. BC 6
Description: as §1, §2, §3, §4, §5, §6, §7

[4] = tested on: Pseudomonas aeruginosa Walter; experiment: as above; assay type: cell-based; details: liquid medium, 18 to 20 h at 37°C, read-out: MHK-Werte Pseud. aerug. Walter
Description: as §1, §2, §3, §4, §5, §6, §7

[5] = tested on: Proteus mirabilis Hamburgensis; experiment: as above; assay type: cell-based; details: liquid medium, 18 to 20 h at 37°C, read-out: MHK-Werte Prot. mir. Hbg.
Description: as §1, §2, §3, §4, §5, §6, §7

[6] = tested on: Escherichia coli ATCC 11 775; experiment: as above; assay type: cell-based; details: ATCC11, liquid medium, 18 to 20 h at 37°C, read-out: MHK-Werte E.coli ATCC 11 755
Description: as §1, §2, §3, §4, §5, §6, §7

[7] = tested on: Serratia marcescens ATCC 13 880; experiment: as above; assay type: cell-based; details: ATCC13, liquid medium, 18 to 20 h at 37°C, read-out: MHK-Werte Serr. marcesc. ATCC 13 880
Description: as §1, §2, §3, §4, §5, §6, §7

[8] = tested on: Staphylococcus aureus SG 511; experiment: as above; assay type: cell-based; details: SG511, liquid medium, 18 to 20 h at 37°C, read-out: MHK-Werte Staph. aureus SG 511
Description: as §1, §2, §3, §4, §5, §6, §7

[9] = tested on: Pseudomonas aeruginosa Hamburgensis; experiment: as above; assay type: cell-based; details: liquid medium, 18 to 20 h at 37°C, read-out: MHK-Werte Pseud. aerug. Hbg.
Description: as §1, §2, §3, §4, §5, §6, §7

E.coli ATCC 11 775 = experiment: experimental intraperitoneal infection in mice, ED50 (survival); assay type: in vivo, Mäuse; details: Escherichia coli, ATCC 11 / ATCC 1175, sc, 168 h; female NMRI mice, i.p. infection, s.c. application, treated once, 7 days observation
Description: Eine Reihe der erfindungsgemäßen Verbindungen wurde in vivo bei experimentellen Infektionen an Mäusen untersucht. Man verwendete als pathogene Bakterien E.coli ATCC 11 775 und Pseudomonas aeruginosa Walter. Es wurde eine intraperitoneale Infektion mit 0,2 ml einer 5%igen Mucinsuspension der Bakterien gesetzt. Dies entspricht etwa 2x10^6 Keime E.coli bzw. 8x10^5 Keime Pseudomonas/Maus. Weibliche Mäuse vom Stamm NMRI wurden in Gruppen von jeweils 10 Tieren aufgeteilt, zwei Gruppen blieben unbehandelt, die restlichen Gruppen wurden mit verschiedenen Dosen der jeweiligen erfindungsgemäßen Penicilline zur Bestimmung der ED50 (Dosis, bei der 50 % der Tiere überleben) behandelt. Bei der E.coli-Infektion wurde einmal therapiert. Bei der Pseudomonas-Infektion wurde dreimal behandelt.
Der Beobachtungszeitraum betrug in beiden Fällen 7 Tage. Die Ergebnisse dieser Teste mit repräsentativen Vertretern der erfindungsgemäßen Penicilline sind in der Tabelle 3 dargestellt.

CC1(C)S[C@@H]2[C@H](NC(=O)[C@H](NC(=O)Nc3cnc(Nc4cccc(S(N)(=O)=O)c4)nc3O)c3ccc(O)cc3)C(=O)N2[C@H]1C(=O)O [Verbindung 5]
MIC [1]: 2 µg/mL (≈ 2.97 µM) | MIC [2]: 1 µg/mL (≈ 1.49 µM) | MIC (Proteus rettgeri BC 7): 0.25 µg/mL (≈ 0.372 µM) | MIC [3]: 2 µg/mL (≈ 2.97 µM) | MIC [4]: 2 µg/mL (≈ 2.97 µM) | MIC [5]: 0.06 µg/mL (≈ 0.0892 µM) | MIC [6]: 0.25 µg/mL (≈ 0.372 µM) | MIC [7]: 0.25 µg/mL (≈ 0.372 µM) | MIC [8]: 0.5 µg/mL (≈ 0.743 µM) | MIC [9]: 2 µg/mL (≈ 2.97 µM)

CN(C)S(=O)(=O)c1ccc(Nc2ncc(NC(=O)N[C@@H](C(=O)N[C@@H]3C(=O)N4[C@@H]3SC(C)(C)[C@@H]4C(=O)O)c3ccc(O)cc3)c(O)n2)cc1 [Verbindung 15]
MIC [1]: 1 µg/mL (≈ 1.43 µM) | MIC [2]: 2 µg/mL (≈ 2.85 µM) | MIC (Proteus rettgeri BC 7): 1 µg/mL (≈ 1.43 µM) | MIC [3]: 1 µg/mL (≈ 1.43 µM) | MIC [4]: 2 µg/mL (≈ 2.85 µM) | MIC [5]: 0.12 µg/mL (≈ 0.171 µM) | MIC [6]: 0.25 µg/mL (≈ 0.357 µM) | MIC [7]: 0.25 µg/mL (≈ 0.357 µM) | MIC [8]: 0.5 µg/mL (≈ 0.714 µM) | MIC [9]: 2 µg/mL (≈ 2.85 µM)

CC1(C)S[C@@H]2[C@H](NC(=O)[C@H](NC(=O)Nc3cnccc3O)c3ccccc3)C(=O)N2[C@H]1C(=O)O [C, D-α-[(4-Hydroxy-3-pyridyl)-ureido]-benzylpenicillin-Natrium, reference compound]
MIC [1]: 32 µg/mL (≈ 65.9 µM) | MIC [2]: 8 µg/mL (≈ 16.5 µM) | MIC (Proteus rettgeri BC 7): 1 µg/mL (≈ 2.06 µM) | MIC [3]: 32 µg/mL (≈ 65.9 µM) | MIC [4]: 8 µg/mL (≈ 16.5 µM) | MIC [5]: 0.25 µg/mL (≈ 0.515 µM) | MIC [6]: 2 µg/mL (≈ 4.12 µM) | MIC [7]: 0.5 µg/mL (≈ 1.03 µM) | MIC [9]: 8 µg/mL (≈ 16.5 µM)

CNS(=O)(=O)c1ccc(Nc2ncc(NC(=O)N[C@@H](C(=O)N[C@@H]3C(=O)N4[C@@H]3SC(C)(C)[C@@H]4C(=O)O)c3ccccc3)c(O)n2)cc1 [Verbindung 8]
MIC [1]: 0.5 µg/mL (≈ 0.745 µM) | MIC [2]: 0.5 µg/mL (≈ 0.745 µM) | MIC (Proteus rettgeri BC 7): 0.5 µg/mL (≈ 0.745 µM) | MIC [3]: 1 µg/mL (≈ 1.49 µM) | MIC [4]: 2 µg/mL (≈ 2.98 µM) | MIC [5]: 0.03 µg/mL (≈ 0.0447 µM) | MIC [6]: 0.12 µg/mL (≈ 0.179 µM) | MIC [7]: 0.12 µg/mL (≈ 0.179 µM) | MIC [8]: 0.12 µg/mL (≈ 0.179 µM) | MIC [9]: 1 µg/mL (≈ 1.49 µM)

CC1(C)S[C@@H]2[C@H](NC(=O)C(NC(=O)Nc3cnc(NCc4ccccc4)nc3O)c3ccccc3)C(=O)N2[C@H]1C(=O)O (some centres unmarked) [Verbindung 61]
MIC [1]: 1 µg/mL (≈ 1.69 µM) | MIC [2]: 1 µg/mL (≈ 1.69 µM) | MIC (Proteus rettgeri BC 7): 0.5 µg/mL (≈ 0.845 µM) | MIC [3]: 2 µg/mL (≈ 3.38 µM) | MIC [4]: 2 µg/mL (≈ 3.38 µM) | MIC [5]: 0.25 µg/mL (≈ 0.423 µM) | MIC [6]: 0.25 µg/mL (≈ 0.423 µM) | MIC [7]: 0.5 µg/mL (≈ 0.845 µM) | MIC [8]: 0.25 µg/mL (≈ 0.423 µM) | MIC [9]: 2 µg/mL (≈ 3.38 µM)

CCCCS(=O)(=O)c1ccc(Nc2ncc(NC(=O)NC(C(=O)NC3C(=O)N4C3SC(C)(C)C4C(=O)O)c3ccc(O)cc3)c(O)n2)cc1 (centres unmarked) [Verbindung 32]
MIC [1]: 1 µg/mL (≈ 1.4 µM) | MIC [2]: 1 µg/mL (≈ 1.4 µM) | MIC (Proteus rettgeri BC 7): 0.25 µg/mL (≈ 0.35 µM) | MIC [3]: 0.5 µg/mL (≈ 0.7 µM) | MIC [4]: 1 µg/mL (≈ 1.4 µM) | MIC [5]: 0.06 µg/mL (≈ 0.0841 µM) | MIC [6]: 0.12 µg/mL (≈ 0.168 µM) | MIC [7]: 0.12 µg/mL (≈ 0.168 µM) | MIC [8]: 0.12 µg/mL (≈ 0.168 µM) | MIC [9]: 2 µg/mL (≈ 2.8 µM)

CC1(C)S[C@@H]2[C@H](NC(=O)[C@H](NC(=O)Nc3cnc(Nc4ccc(S(N)(=O)=O)cc4)nc3O)C3=CCC=CC3)C(=O)N2[C@H]1C(=O)O [Verbindung 12]
ED50 (E.coli ATCC 11 775): 5 mg/kg

CC1(C)SC2C(NC(=O)C(NC(=O)Nc3cnc(Nc4ccc(C(N)=O)cc4)nc3O)c3ccc(O)c(Cl)c3)C(=O)N2C1C(=O)O (centres unmarked) [Verbindung 35]
MIC [1]: 4 µg/mL (≈ 5.96 µM) | MIC [2]: 4 µg/mL (≈ 5.96 µM) | MIC (Proteus rettgeri BC 7): 0.5 µg/mL (≈ 0.745 µM) | MIC [3]: 4 µg/mL (≈ 5.96 µM) | MIC [4]: 4 µg/mL (≈ 5.96 µM) | MIC [5]: 0.25 µg/mL (≈ 0.373 µM) | MIC [6]: 0.5 µg/mL (≈ 0.745 µM) | MIC [7]: 0.5 µg/mL (≈ 0.745 µM) | MIC [8]: 0.5 µg/mL (≈ 0.745 µM) | MIC [9]: 2 µg/mL (≈ 2.98 µM)

CC1(C)S[C@@H]2[C@H](NC(=O)[C@H](NC(=O)Nc3cnc(Nc4ccc(S(N)(=O)=O)cc4)nc3O)c3cccs3)C(=O)N2[C@H]1C(=O)O [Verbindung 2]
MIC [1]: 2 µg/mL (≈ 3.02 µM) | MIC [2]: 2 µg/mL (≈ 3.02 µM) | MIC (Proteus rettgeri BC 7): 0.5 µg/mL (≈ 0.754 µM) | MIC [3]: 1 µg/mL (≈ 1.51 µM) | MIC [4]: 2 µg/mL (≈ 3.02 µM) | MIC [5]: 0.06 µg/mL (≈ 0.0905 µM) | MIC [6]: 0.5 µg/mL (≈ 0.754 µM) | MIC [7]: 0.25 µg/mL (≈ 0.377 µM) | MIC [8]: 0.12 µg/mL (≈ 0.181 µM) | MIC [9]: 4 µg/mL (≈ 6.04 µM)
